{"source": "paper PMC9556331", "about": "“Structural basis for directional chitin biosynthesis” (Nature, 2022)", "key": {"[1]": {"biological_target": "T1, chitin synthase PsChs1 (Phytophthora sojae, UniProt G4Z2L3)", "T1 construct": "gene CHS1; full-length PsChs1 with C-terminal tandem twin Strep tag and Flag tag; residues 40-860 built, 743-758 disordered; homodimer", "assay": "cryo-EM structure ([…] Å)", "format": "binding"}, "[2]": {"biological_target": "T1, chitin synthase PsChs1", "assay": "cryo-EM structure ([…] Å) plus enzyme inhibition kinetics (competitive Ki)", "format": "biochemical"}, "[3]": {"biological_target": "the molecule itself", "assay": "AUC; purified recombinant PsChs1 in the presence of detergent; molar mass of the main peak compared with the 107 kDa monomer"}, "[4]": {"biological_target": "the molecule itself", "assay": "cryo-EM structure; purified protein at about 5 mg/ml in digitonin buffer; apo or with UDP-GlcNAc, UDP/(GlcNAc)3, UDP or NikZ; C2 symmetry imposed"}}, "data": [{"molecule": "O=c1ccn([C@@H]2O[C@H](COP(=O)(O)OP(=O)(O)O)[C@@H](O)[C@H]2O)c(=O)[nH]1", "note": "[UDP]", "values": [{"measurement": "cryo-EM structure (3.1 Å)", "setting": "[1]", "result": "The UDP-bound dimeric PsChs1 structure represents its nascent chitin-released state"}]}, {"molecule": "C[C@@H]([C@H](N)C(=O)N[C@H](C(=O)O)[C@H]1O[C@@H](n2ccc(=O)[nH]c2=O)[C@H](O)[C@@H]1O)[C@H](O)c1ccc(O)cn1", "note": "[NikZ, nikkomycin Z]", "values": [{"measurement": "Ki", "setting": "[2]", "result": "151 ± 4.8", "unit": "µM"}]}, {"molecule": "Phytophthora sojae chitin synthase PsChs1 (enzyme, also called native PsChs1; wild-type PsChs1) MSGAPPPSSGFAPRSYGQQPLSHAPRSSMMSVEYDGIPLPPPSIRSCGSQQYVTSYIPTGAAFPPSSVQDMISSMKSYASATDLVRTYSEIPSVEEALSTLDRAAAALNARRYRDALKLYLEGGYAMANVAERQANPKICNLLTSKGFETLNWCARLCDWIEGRIKEKHPRPGVHKVGIPVSNWDEDWVGPFMDEEEARRMWYTPVYCPHPIDFSNLGYRLRCVETGRRPRLMICITMYNEGPQQLKATLKKLANNLAYLKEQMPGDEKSLTGAFAGDDVWQNVLVCIVADGREQVHPKTLDYLEAIGLYDEDLLTINSAGIGAQCHLFEHTLQLSVNGKCLLPIQTVFALKENKASKLDSHHWYFNAFAEQIQPEYTAVMDVGTMLTKSALYHLLFAFERNHQIGGACGQLTVDNPFENLSNWVISAQHFEYKISNILDKSLESCFGFISVLPGAFSAYRYEAIRGAPLDAYFQTLNIELDVLGPFIGNMYLAEDRILSFEVVARKNCNWTMHYVKDAVARTDVPHDLVGLISQRKRWLNGAFFATLFSIWNWGRIYSESKHTFVRKMAFLVFYVYHLLYTAFGFFLPANLYLALFFIVFQGFQQNRLEFIDTSEYSQTVLDCAVYIYNFSYLFGLLMLIIIGLGNNPKHMKLTYYFVGAVFGLMMMLSSLVGAGIFFSTPATVHSIVVSILTVGVYFIASALHGEVHHIFMTFTHYTALIPSFVNIFTIYSFCNLQDLSWGTKGLHDDPLLAASLDETEKGDFKDVIAKRRALEELRREEKERVENRKKNFEAFRTNVLLTWAFSNLIFALFVVYFASSSTYMPVLYIFVASLNTCRLLGSIGHWVYIHTEGLRGRVIDKSECGNGTGRYPQNSYVQLEEHYAALAEDQRTYASGRTNASVRTVNDVSSAA", "values": [{"measurement": "stoichiometry N", "setting": "[3]", "result": 2}]}, {"molecule": "PsChs1 E495A (used for the UDP-GlcNAc-bound structure) (enzyme, source: HEK293F, transiently transfected, purified as the native PsChs1 (Strep-TactinXT, anti-Flag M2 resin, SEC)) MSGAPPPSSGFAPRSYGQQPLSHAPRSSMMSVEYDGIPLPPPSIRSCGSQQYVTSYIPTGAAFPPSSVQDMISSMKSYASATDLVRTYSEIPSVEEALSTLDRAAAALNARRYRDALKLYLEGGYAMANVAERQANPKICNLLTSKGFETLNWCARLCDWIEGRIKEKHPRPGVHKVGIPVSNWDEDWVGPFMDEEEARRMWYTPVYCPHPIDFSNLGYRLRCVETGRRPRLMICITMYNEGPQQLKATLKKLANNLAYLKEQMPGDEKSLTGAFAGDDVWQNVLVCIVADGREQVHPKTLDYLEAIGLYDEDLLTINSAGIGAQCHLFEHTLQLSVNGKCLLPIQTVFALKENKASKLDSHHWYFNAFAEQIQPEYTAVMDVGTMLTKSALYHLLFAFERNHQIGGACGQLTVDNPFENLSNWVISAQHFEYKISNILDKSLESCFGFISVLPGAFSAYRYEAIRGAPLDAYFQTLNIELDVLGPFIGNMYLAADRILSFEVVARKNCNWTMHYVKDAVARTDVPHDLVGLISQRKRWLNGAFFATLFSIWNWGRIYSESKHTFVRKMAFLVFYVYHLLYTAFGFFLPANLYLALFFIVFQGFQQNRLEFIDTSEYSQTVLDCAVYIYNFSYLFGLLMLIIIGLGNNPKHMKLTYYFVGAVFGLMMMLSSLVGAGIFFSTPATVHSIVVSILTVGVYFIASALHGEVHHIFMTFTHYTALIPSFVNIFTIYSFCNLQDLSWGTKGLHDDPLLAASLDETEKGDFKDVIAKRRALEELRREEKERVENRKKNFEAFRTNVLLTWAFSNLIFALFVVYFASSSTYMPVLYIFVASLNTCRLLGSIGHWVYIHTEGLRGRVIDKSECGNGTGRYPQNSYVQLEEHYAALAEDQRTYASGRTNASVRTVNDVSSAA", "values": [{"measurement": "stoichiometry N", "setting": "[4]", "result": 2}]}]}
